This passage reports IC50 and EC50 results from ChEMBL document CHEMBL1201862, “PubChem BioAssay data set” (2004).

Calls of active or inactive are those of the source.

Experiment [1] has as its target Heat shock protein HSP 90-alpha (Homo sapiens, UniProt P07900). Description: Luminescence-based dose response biochemical high throughput screening assay for inhibitors of the Heat Shock Protein 90 (HSP90). [Related pubchem assays: 1831 (Summary AID.), 1846 (Confirmation screen.), 1789 (Primary screen.)].
Experiment [2] has as its target T1, Mitochondrial peptide methionine sulfoxide reductase (Bos taurus, UniProt P54149).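 Further: absorbance read-out, biochemical high-throughput dose-response screen for MsrA inhibitors, confirmatory; recombinant bovine MsrA coupled to E. coli TrxB with NADPH and selenocystamine; potency is for inhibitors of MsrA activity on DMSO substrate.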
T1 sequence (P54149 whole entry): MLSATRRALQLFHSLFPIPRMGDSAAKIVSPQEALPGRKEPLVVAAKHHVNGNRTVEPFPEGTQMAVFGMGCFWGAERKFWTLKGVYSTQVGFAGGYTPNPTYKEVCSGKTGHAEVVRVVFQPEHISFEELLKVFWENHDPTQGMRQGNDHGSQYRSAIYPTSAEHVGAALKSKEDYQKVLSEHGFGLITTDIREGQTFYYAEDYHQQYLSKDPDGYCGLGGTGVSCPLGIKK
The format is functional.

Experiment [3] is described as follows: inhibitors of SNCA 5'UTR-driven reporter translation, confirmation, H4 neuroglioma cells, luminescence (AID 1988). In kind it is functional, cell-based.
For experiment [4], the target named is T2, Heat shock factor protein 1 (Mus musculus, UniProt P38532).
T2 sequence (P38532 whole entry): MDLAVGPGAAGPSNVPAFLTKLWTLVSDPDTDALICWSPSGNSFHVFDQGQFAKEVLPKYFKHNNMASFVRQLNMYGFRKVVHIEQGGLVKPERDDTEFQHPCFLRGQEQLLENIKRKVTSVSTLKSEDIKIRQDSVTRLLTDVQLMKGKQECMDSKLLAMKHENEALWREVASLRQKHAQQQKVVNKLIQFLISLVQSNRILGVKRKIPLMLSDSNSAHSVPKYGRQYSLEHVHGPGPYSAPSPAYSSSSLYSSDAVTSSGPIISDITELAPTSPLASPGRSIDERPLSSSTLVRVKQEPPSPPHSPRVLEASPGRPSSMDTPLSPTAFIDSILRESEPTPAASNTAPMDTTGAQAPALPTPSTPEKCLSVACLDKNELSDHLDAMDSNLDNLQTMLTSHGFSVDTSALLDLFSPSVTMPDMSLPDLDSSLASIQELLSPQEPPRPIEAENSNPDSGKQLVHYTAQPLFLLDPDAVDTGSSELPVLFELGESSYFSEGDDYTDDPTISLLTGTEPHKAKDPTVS
Description: HSF1 potentiators in luciferase reporter cells, confirmation, cell-based, NIH3T3, luminescence, dose retest (AID 435004).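 Further: stress induced by proteasome inhibitor MG132 added 30 min after compound; luciferase reporter driven by HSF1 response element in NIH3T3 cells; actives raise luminescence as potentiators of the MG132 stress response.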 The format is functional.

The term IC50 denotes the concentration that inhibits the measured activity by half. `CCc1ccc(S(=O)(=O)/N=C2\C=C(Nc3ccc(C(=O)O)cc3)C(=O)c3ccccc32)cc1`: the IC50 in experiment [1] is 966 nM (active); in experiment [2] it was 5000 nM (active).
By EC50 is commonly meant the concentration that produces a half-maximal response. In the case of `COc1cccc(/C=N/Nc2ccc([N+](=O)[O-])cn2)c1O`, the EC50 was 540 nM (active) in experiment [3] and 3080 nM (active) in experiment [4].
